According to patent US20230295234A1, “ANTIMICROBIAL PEPTIDOMIMETICS” (SPEXIS AG, priority 2020, published 2023):
Bridge positions count the residues as written; N and C are the ends. Square brackets hold non-standard residues; d marks the D form. Peptide text beside a SMILES is read from it. dDab = NCC[C@@H](N)C(=O)O; Dab = NCC[C@H](N)C(=O)O; Nlys = NCCCCNCC(=O)O

How the values were obtained:
[1] = tested on: Escherichia coli ATCC 25922; details: ATCC 25922
Method in brief: (§1)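 Activity is measured against peptides serially diluted two-fold in water with 0.002% final Polysorbate 80. The cells are in cation-adjusted MHII broth at roughly 5×10^5 CFU/mL, prepared from a 0.5 McFarland suspension in 0.85% NaCl.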

[2] = tested on: Escherichia coli MCR-1 Af 45; details: MCR-1 Af 45
Method in brief: as §1

[3] = tested on: Klebsiella pneumoniae SSI3010; details: SSI3010
Method in brief: as §1

[4] = tested on: human red blood cells (hRBC); assay: Hemolysis of human red blood cells; assay type: cell-based; details: red cells of human, 1 h
Method in brief: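 PBS-washed human red blood cells (20% v/v) were incubated with peptide at 200 μg/mL for 1 h at 37 °C with shaking. Supernatant OD was read at 540 nm after 8-fold dilution. Hemolysis is expressed as percent of the water control.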

Compound	Escherichia coli ATCC 25922 MIC [1]	Escherichia coli MCR-1 Af 45 MIC [2]	Klebsiella pneumoniae SSI3010 MIC [3]	Hemolysis at 0.2 g/L [4]
CC[C@H](C)[C@H](NC(=O)[C@@H](NC(=O)[C@@H]1CCCN1C(=O)[C@@H](NC(=O)[C@@H]1CCCN1C(=O)[C@H](CCCCN)NC(=O)[C@@H](N)CCCCN)C(C)C)[C@@H](C)CC)C(=O)N[C@@H](Cc1ccc(O)cc1)C(=O)N[C@H]1CSSC[C@@H](C(=O)N[C@@H](CCN)C(=O)N(CCCN)CC(=O)N[C@@H](Cc2ccc(O)cc2)C(=O)O)NC(=O)[C@H](CCCCN)NC(=O)[C@@H](CCN)NC(=O)[C@H]([C@@H](C)O)NC(=O)[C@H](CCN)NC(=O)[C@H](CCCNC(=N)N)NC(=O)[C@H](CC(N)=O)NC1=O [Example 108] (HELM PEPTIDE1{K.K.P.V.P.I.I.Y.C.N.R.[Dab].T.[NCC[C@@H](N[*:1])C(=O)[*:2]].K.C.[Dab].[NCCCN(CC(=O)[*:2])[*:1]].Y}$PEPTIDE1,PEPTIDE1,9:R3-16:R3$$$V2.0)	0.125 µg/mL	≤0.03125 µg/mL	0.0625 µg/mL	0%
CC[C@H](C)[C@H](NC(=O)[C@@H](NC(=O)[C@@H]1CCCN1C(=O)[C@@H](NC(=O)[C@@H]1CCCN1C(=O)[C@H](CCCCN)NC(=O)[C@@H](N)CCCCN)C(C)C)[C@@H](C)CC)C(=O)N[C@@H](Cc1ccc(O)cc1)C(=O)N[C@H]1CSSC[C@@H](C(=O)N[C@@H](CCN)C(=O)N(CCCCN)CC(=O)N[C@@H](Cc2ccc(O)cc2)C(=O)O)NC(=O)[C@H](CCCCN)NC(=O)[C@@H](CCN)NC(=O)[C@H]([C@@H](C)O)NC(=O)[C@H](CCN)NC(=O)[C@H](CCCNC(=N)N)NC(=O)[C@H](CC(N)=O)NC1=O [Example 109] (HELM PEPTIDE1{K.K.P.V.P.I.I.Y.C.N.R.[Dab].T.[NCC[C@@H](N[*:1])C(=O)[*:2]].K.C.[Dab].[NCCCCN(CC(=O)[*:2])[*:1]].Y}$PEPTIDE1,PEPTIDE1,9:R3-16:R3$$$V2.0)	0.0625 µg/mL	0.0625 µg/mL	0.125 µg/mL	0%
CC[C@H](C)[C@H](NC(=O)[C@@H](NC(=O)[C@@H]1CCCN1C(=O)[C@@H](NC(=O)[C@@H]1CCCN1C(=O)[C@H](CCCCN)NC(=O)[C@@H](N)CCCCN)C(C)C)[C@@H](C)CC)C(=O)N[C@@H](Cc1ccc(O)cc1)C(=O)N[C@H]1CSSC[C@@H](C(=O)N[C@@H](CCN)C(=O)N(CCN)CC(=O)N[C@@H](Cc2ccc(O)cc2)C(=O)O)NC(=O)[C@H](CCCCN)NC(=O)[C@@H](CCN)NC(=O)[C@H]([C@@H](C)O)NC(=O)[C@H](CCN)NC(=O)[C@H](CCCNC(=N)N)NC(=O)[C@H](CC(N)=O)NC1=O [Example 110] (HELM PEPTIDE1{K.K.P.V.P.I.I.Y.C.N.R.[Dab].T.[NCC[C@@H](N[*:1])C(=O)[*:2]].K.C.[Dab].[NCCN(CC(=O)[*:2])[*:1]].Y}$PEPTIDE1,PEPTIDE1,9:R3-16:R3$$$V2.0)	0.125 µg/mL	0.125 µg/mL	0.125 µg/mL	0%
CC[C@H](C)[C@H](NC(=O)[C@@H](NC(=O)[C@@H]1CCCN1C(=O)[C@@H](NC(=O)[C@@H]1CCCN1C(=O)[C@H](CCCCN)NC(=O)[C@@H](N)CCCCN)C(C)C)[C@@H](C)CC)C(=O)N[C@@H](Cc1ccc(O)cc1)C(=O)N[C@H]1CSSC[C@@H](C(=O)N[C@@H](CCN)C(=O)N(CCCNC(=N)N)CC(=O)N[C@@H](Cc2ccc(O)cc2)C(=O)O)NC(=O)[C@H](CCCCN)NC(=O)[C@@H](CCN)NC(=O)[C@H]([C@@H](C)O)NC(=O)[C@H](CCN)NC(=O)[C@H](CCCNC(=N)N)NC(=O)[C@H](CC(N)=O)NC1=O [Example 111] (HELM PEPTIDE1{K.K.P.V.P.I.I.Y.C.N.R.[Dab].T.[NCC[C@@H](N[*:1])C(=O)[*:2]].K.C.[Dab].[N=C(N)NCCCN(CC(=O)[*:2])[*:1]].Y}$PEPTIDE1,PEPTIDE1,9:R3-16:R3$$$V2.0; N-terminus assumed)	0.25 µg/mL	0.125 µg/mL	0.25 µg/mL	0%
CC[C@H](C)[C@H](NC(=O)[C@@H](NC(=O)[C@@H]1CCCN1C(=O)[C@@H](NC(=O)[C@@H]1C[C@@H](N)CN1C(=O)[C@H](CCCCN)NC(=O)[C@@H](N)CCCCN)C(C)C)[C@@H](C)CC)C(=O)N[C@@H](Cc1ccc(O)cc1)C(=O)N[C@@H]1C(=O)N[C@@H](CC(N)=O)C(=O)N[C@@H](CCCNC(=N)N)C(=O)N[C@@H](CCN)C(=O)N[C@@H]([C@@H](C)O)C(=O)N[C@H](CCN)C(=O)N[C@@H](CCCCN)C(=O)N[C@H](C(=O)N[C@@H](CCN)C(=O)N[C@@H](CCCNC(=N)N)C(=O)N[C@@H](Cc2ccc(O)cc2)C(=O)O)CSSC1(C)C [Example 114, Lys-Lys-Pro((4R)NH2)-Val-Pro-Ile-Ile-Tyr-Pen-Asn-Arg-^Dab-Thr-^DDab-Lys-Cys-Dab-Arg-Tyr] (HELM PEPTIDE1{K.K.[N[C@@H]1C[C@@H](C(=O)[*:2])N([*:1])C1].V.P.I.I.Y.[Pen].N.R.[Dab].T.[NCC[C@@H](N[*:1])C(=O)[*:2]].K.C.[Dab].R.Y}$PEPTIDE1,PEPTIDE1,9:R3-16:R3$$$V2.0)	0.0625 µg/mL	0.0625 µg/mL	0.0625 µg/mL	0%

Continued, in another order:

Escherichia coli ATCC 25922 MIC [1]	Escherichia coli MCR-1 Af 45 MIC [2]	Klebsiella pneumoniae SSI3010 MIC [3]	Compound	Hemolysis at 0.2 g/L [4]
0.25 µg/mL	0.125 µg/mL	0.125 µg/mL	CC[C@H](C)[C@H](NC(=O)[C@@H](NC(=O)[C@@H]1CCCN1C(=O)[C@@H](NC(=O)[C@@H]1CCCN1C(=O)[C@H](CCCCN)NC(=O)[C@@H](N)CCCCN)C(C)C)[C@@H](C)CC)C(=O)N[C@@H](Cc1ccc(O)cc1)C(=O)N[C@H]1CSSC[C@@H](C(=O)N[C@@H](CCN)C(=O)N[C@@H](CCCNC(=N)N)C(=O)N[C@@H](Cc2ccc(O)cc2)C(=O)O)NC(=O)[C@H](CCCCN)NC(=O)[C@@H](CCN)NC(=O)[C@H]([C@@H](C)O)NC(=O)CN(CCCN)C(=O)[C@H](CCCNC(=N)N)NC(=O)[C@H](CC(N)=O)NC1=O [Example 106] (HELM PEPTIDE1{K.K.P.V.P.I.I.Y.C.N.R.[NCCCN(CC(=O)[*:2])[*:1]].T.[NCC[C@@H](N[*:1])C(=O)[*:2]].K.C.[Dab].R.Y}$PEPTIDE1,PEPTIDE1,9:R3-16:R3$$$V2.0; N-terminus assumed)	0%
0.25 µg/mL	0.25 µg/mL	0.25 µg/mL	CC[C@H](C)[C@H](NC(=O)[C@@H](NC(=O)[C@@H]1CCCN1C(=O)[C@@H](NC(=O)[C@@H]1CCCN1C(=O)[C@H](CCCCN)NC(=O)[C@@H](N)CCCCN)C(C)C)[C@@H](C)CC)C(=O)N[C@@H](Cc1ccc(O)cc1)C(=O)N[C@H]1CSSC[C@@H](C(=O)N[C@@H](CCN)C(=O)N[C@@H](CCCNC(=N)N)C(=O)N[C@@H](Cc2ccc(O)cc2)C(=O)O)NC(=O)[C@H](CCCCN)NC(=O)[C@@H](CCN)NC(=O)[C@H]([C@@H](C)O)NC(=O)CN(CCN)C(=O)[C@H](CCCNC(=N)N)NC(=O)[C@H](CC(N)=O)NC1=O [Example 107] (HELM PEPTIDE1{K.K.P.V.P.I.I.Y.C.N.R.[NCCN(CC(=O)[*:2])[*:1]].T.[NCC[C@@H](N[*:1])C(=O)[*:2]].K.C.[Dab].R.Y}$PEPTIDE1,PEPTIDE1,9:R3-16:R3$$$V2.0; N-terminus assumed)	0%
0.25 µg/mL	0.25 µg/mL	0.125 µg/mL	CC[C@H](C)[C@H](NC(=O)[C@@H](NC(=O)[C@@H]1CCCN1C(=O)[C@@H](NC(=O)[C@@H]1CCCN1C(=O)[C@H](CCCCN)NC(=O)CNCCCCN)C(C)C)[C@@H](C)CC)C(=O)N[C@@H](Cc1ccc(O)cc1)C(=O)N[C@H]1CSSC[C@@H](C(=O)N[C@@H](CCN)C(=O)N[C@@H](CCCNC(=N)N)C(=O)N[C@@H](Cc2ccc(O)cc2)C(=O)O)NC(=O)[C@H](CCCCN)NC(=O)[C@@H](CCN)NC(=O)[C@H]([C@@H](C)O)NC(=O)CN(CCCCN)C(=O)[C@H](CCCNC(=N)N)NC(=O)[C@H](CC(N)=O)NC1=O [Example 112] (H-[Nlys]KPVPIIYCNR[Nlys]T[dDab]KC[Dab]RY-OH; disulfide 9-16)	0%
0.0625 µg/mL	0.125 µg/mL	0.125 µg/mL	CC[C@H](C)[C@H](NC(=O)[C@@H](NC(=O)[C@@H]1CCCN1C(=O)[C@@H](NC(=O)[C@@H]1CCCN1C(=O)[C@H](CCCCN)NC(=O)CNCCN)C(C)C)[C@@H](C)CC)C(=O)N[C@@H](Cc1ccc(O)cc1)C(=O)N[C@H]1CSSC(C)(C)[C@@H](C(=O)N[C@@H](CCN)C(=O)N[C@@H](CCCNC(=N)N)C(=O)N[C@@H](Cc2ccc(O)cc2)C(=O)O)NC(=O)[C@H](CCCCN)NC(=O)[C@@H](CCN)NC(=O)[C@H]([C@@H](C)O)NC(=O)[C@H](CCN)NC(=O)[C@H](CCCNC(=N)N)NC(=O)[C@H](CC(N)=O)NC1=O [Example 113] (HELM PEPTIDE1{[NCCNCC(=O)[*:2]].K.P.V.P.I.I.Y.C.N.R.[Dab].T.[NCC[C@@H](N[*:1])C(=O)[*:2]].K.[Pen].[Dab].R.Y}$PEPTIDE1,PEPTIDE1,9:R3-16:R3$$$V2.0)	0%
